Target: T1, histamine H4 receptor (Homo sapiens, UniProt Q9H3N8)
T1 construct: expressed in transfected cells; host or cells: HEK293SFM cells (membrane preparation)
Assay: H4 Membrane Binding Assay (3H-Histamine displacement)
Details: membranes of recombinant HEK293SFM cells, 10 nM 3H-Histamine, 1.5 hr at room temperature
Description: Recombinant HEK293SFM cells expressing human H1, H2, H3, H4 or mouse H4 were harvested (Packard Filtermate Harvester) in ice-cold Tris-HCl, (50 mM, pH 7.5, Sigma) with protease inhibitors (Roche) and homogenized with a Polytron homogenizer. The homogenate was centrifuged for 5 minutes at 1000 g to remove nuclei and unbroken cells. The supernatant was centrifuged at 50000 g for 30 minutes, and the resulting pellet was re-suspended in ice-cold Tris-HCl (50 mM, pH 7.5). […] Nonspecific binding was determined by inclusion of 1000× unlabeled ligands. The bound radioactivity was separated by filtration through polyethyleneimine-treated GF/B filters (Perkin Elmer). The filters were washed eight times with ice-cold Tris-HCl (50 mM, pH 7.5), and radioactivity retained on the filters was measured by liquid scintillation counting. The binding data were evaluated with Prism.

Row | IC50 [µM] | Structure (SMILES)
1 | 0.093 | CO[C@@H]1Cc2ccccc2[C@@H]1NC(=O)N1CCc2ccc(-c3cc(N4CCN(C)CC4)nc(N)n3)cc2C1 [Example 57, 7-[2-Amino-6-(4-methylpiperazin-1-yl)pyrimidin-4-yl]-N-[(1S,2R)-2-methoxy-2,3-dihydro-1H-inden-1-yl]-3,4-dihydroisoquinoline-2(1H)-carboxamide]
2 | 0.165 | CO[C@H]1Cc2ccccc2[C@H]1NC(=O)N1CCc2ccc(-c3cc(N4CCN(C)CC4)nc(N)n3)cc2C1 [Example 58, 7-[2-Amino-6-(4-methylpiperazin-1-yl)pyrimidin-4-yl]-N-[(1R,2S)-2-methoxy-2,3-dihydro-1H-inden-1-yl]-3,4-dihydroisoquinoline-2(1H)-carboxamide]
3 | 0.07 | CN1CCN(c2cc(-c3ccc4c(c3)CN(C(=O)C(F)(F)c3ccccc3)CC4)nc(N)n2)CC1 [Example 61, 4-{2-[Difluoro(phenyl)acetyl]-1,2,3,4-tetrahydroisoquinolin-7-yl}-6-(4-methylpiperazin-1-yl)pyrimidin-2-amine]
4 | 0.024 | CC(CC(=O)N1CCc2ccc(-c3cc(N4CCN(C)CC4)nc(N)n3)cc2C1)C(F)(F)F (centres unmarked) [Example 62, 4-(4-Methylpiperazin-1-yl)-6-[2-(4,4,4-trifluoro-3-methylbutanoyl)-1,2,3,4-tetrahydroisoquinolin-7-yl]pyrimidin-2-amine]
5 | 0.037 | CN1CCN(c2cc(-c3ccc4c(c3)CN(C(=O)NC3CCC(F)(F)CC3)CC4)nc(N)n2)CC1 [Example 63, 7-[2-Amino-6-(4-methylpiperazin-1-yl)pyrimidin-4-yl]-N-(4,4-difluorocyclohexyl)-3,4-dihydroisoquinoline-2(1H)-carboxamide]
6 | 0.043 | CN1CCN(c2cc(-c3ccc4c(c3)CN(C(=O)NC3CCC(C(F)(F)F)CC3)CC4)nc(N)n2)CC1 (centres unmarked) [Example 64, 7-[2-Amino-6-(4-methylpiperazin-1-yl)pyrimidin-4-yl]-N-[4-(trifluoromethyl)cyclohexyl]-3,4-dihydroisoquinoline-2(1H)-carboxamide]
7 | 0.025 | CN1CCN(c2cc(-c3ccc4c(c3)CN(C(=O)Cc3ccc(F)cc3)CC4)nc(N)n2)CC1 [Example 65, 4-{2-[(4-Fluorophenyl)acetyl]-1,2,3,4-tetrahydroisoquinolin-7-yl}-6-(4-methylpiperazin-1-yl)pyrimidin-2-amine]
8 | 0.044 | CN1CCN(c2cc(-c3ccc4c(c3)CN(C(=O)COc3cccc(Cl)c3)CC4)nc(N)n2)CC1 [Example 66, 4-{2-[(3-Chlorophenoxy)acetyl]-1,2,3,4-tetrahydroisoquinolin-7-yl}-6-(4-methylpiperazin-1-yl)pyrimidin-2-amine]
9 | 0.357 | CN1CCN(c2cc(-c3ccc4c(c3)CN(C(=O)CC3CCN(C(=O)c5ccccc5)CC3)CC4)nc(N)n2)CC1 [Example 73, 4-{2-[(1-Benzoylpiperidin-4-yl)acetyl]-1,2,3,4-tetrahydroisoquinolin-7-yl}-6-(4-methylpiperazin-1-yl)pyrimidin-2-amine]
10 | 0.364 | CN1CCN(c2cc(-c3ccc4c(c3)CN(C(=O)OC3CCOC3)CC4)nc(N)n2)CC1 (centres unmarked) [Example 79, Tetrahydrofuran-3-yl 7-[2-amino-6-(4-methylpiperazin-1-yl)pyrimidin-4-yl]-3,4-dihydroisoquinoline-2(1H)-carboxylate]
11 | 0.232 | CN1CCN(c2cc(-c3ccc4c(c3)CN(C(=O)NCc3ccccc3)CC4)nc(N)n2)CC1 [Example 80, 7-[2-Amino-6-(4-methylpiperazin-1-yl)pyrimidin-4-yl]-N-benzyl-3,4-dihydroisoquinoline-2(1H)-carboxamide]
12 | 0.067 | CN1CCN(c2cc(-c3ccc4c(c3)CN(C(=O)NC3CCc5ccccc53)CC4)nc(N)n2)CC1 (centres unmarked) [Example 82, 7-[2-Amino-6-(4-methylpiperazin-1-yl)pyrimidin-4-yl]-N-(2,3-dihydro-1H-inden-1-yl)-3,4-dihydroisoquinoline-2(1H)-carboxamide]
13 | 0.038 | CN1CCN(c2cc(-c3ccc4c(c3)CN(C(=O)NC3CCCc5ccccc53)CC4)nc(N)n2)CC1 (centres unmarked) [Example 83, 7-[2-Amino-6-(4-methylpiperazin-1-yl)pyrimidin-4-yl]-N-(1,2,3,4-tetrahydronaphthalen-1-yl)-3,4-dihydroisoquinoline-2(1H)-carboxamide]

More lines, now with the values behind:

Row | Structure (SMILES) | IC50 [µM]
14 | CCOC(=O)N1CCC(NC(=O)N2CCc3ccc(-c4cc(N5CCN(C)CC5)nc(N)n4)cc3C2)CC1 [Example 52, Ethyl 4-({[7-[2-amino-6-(4-methylpiperazin-1-yl)pyrimidin-4-yl]-3,4-dihydroisoquinolin-2(1H)-yl]carbonyl}amino)piperidine-1-carboxylate] | 0.13
15 | CN1CCN(c2cc(-c3ccc4c(c3)CN(C(=O)NC3CCC(C(=O)N(C)C)CC3)CC4)nc(N)n2)CC1 (centres unmarked) [Example 54, 7-[2-Amino-6-(4-methylpiperazin-1-yl)pyrimidin-4-yl]-N-{4-[(dimethylamino)carbonyl]cyclohexyl}-3,4-dihydroisoquinoline-2(1H)-carboxamide] | 0.439
16 | CO[C@H]1CC[C@H](NC(=O)N2CCc3ccc(-c4cc(N5CCN(C)CC5)nc(N)n4)cc3C2)CC1 [Example 56, 7-[2-Amino-6-(4-methylpiperazin-1-yl)pyrimidin-4-yl]-N-(trans-4-methoxycyclohexyl)-3,4-dihydroisoquinoline-2(1H)-carboxamide] | 0.21
17 | CN1CCN(c2cc(-c3ccc4c(c3)CN(C(=O)NC35CC6CC(CC(C6)C3)C5)CC4)nc(N)n2)CC1 [Example 59, N-1-Adamantyl-7-[2-amino-6-(4-methylpiperazin-1-yl)pyrimidin-4-yl]-3,4-dihydroisoquinoline-2(1H)-carboxamide] | 0.019
18 | CN1CCN(c2cc(-c3ccc4c(c3)CN(C(=O)OC3CCN(C(=O)C5CCCC5)CC3)CC4)nc(N)n2)CC1 [Example 67, 1-(Cyclopentylcarbonyl)piperidin-4-yl 7-[2-amino-6-(4-methylpiperazin-1-yl)pyrimidin-4-yl]-3,4-dihydroisoquinoline-2(1H)-carboxylate] | 0.11
19 | CC(C)OC(=O)N1CCC(OC(=O)N2CCc3ccc(-c4cc(N5CCN(C)CC5)nc(N)n4)cc3C2)CC1 [Example 68, 1-(Isopropoxycarbonyl)piperidin-4-yl 7-[2-amino-6-(4-methylpiperazin-1-yl)pyrimidin-4-yl]-3,4-dihydroisoquinoline-2(1H)-carboxylate] | 0.038
20 | CN1CCN(c2cc(-c3ccc4c(c3)CN(C(=O)OC3CCN(C(=O)OC5CCCC5)CC3)CC4)nc(N)n2)CC1 [Example 69, 1-[(Cyclopentyloxy)carbonyl]piperidin-4-yl 7-[2-amino-6-(4-methylpiperazin-1-yl)pyrimidin-4-yl]-3,4-dihydroisoquinoline-2(1H)-carboxylate] | 0.033
21 | CN1CCN(c2cc(-c3ccc4c(c3)CN(C(=O)OC3CCN(C(=O)NC5CCCC5)CC3)CC4)nc(N)n2)CC1 [Example 70, 1-[(Cyclopentylamino)carbonyl]piperidin-4-yl 7-[2-amino-6-(4-methylpiperazin-1-yl)pyrimidin-4-yl]-3,4-dihydroisoquinoline-2(1H)-carboxylate] | 0.361
22 | CC(C)OC(=O)N1CCC(CC(=O)N2CCc3ccc(-c4cc(N5CCN(C)CC5)nc(N)n4)cc3C2)CC1 [Example 71, Isopropyl 4-{2-[7-[2-amino-6-(4-methylpiperazin-1-yl)pyrimidin-4-yl]-3,4-dihydroisoquinolin-2(1H)-yl]-2-oxoethyl}piperidine-1-carboxylate] | 0.066
23 | CN1CCN(c2cc(-c3ccc4c(c3)CN(C(=O)CC3CCN(C(=O)C5CC5)CC3)CC4)nc(N)n2)CC1 [Example 72, 4-(2-{[1-(Cyclopropylcarbonyl)piperidin-4-yl]acetyl}-1,2,3,4-tetrahydroisoquinolin-7-yl)-6-(4-methylpiperazin-1-yl)pyrimidin-2-amine] | 0.419
24 | CCS(=O)(=O)N1CCC(CC(=O)N2CCc3ccc(-c4cc(N5CCN(C)CC5)nc(N)n4)cc3C2)CC1 [Example 74, 4-(2-{[1-(Ethylsulfonyl)piperidin-4-yl]acetyl}-1,2,3,4-tetrahydroisoquinolin-7-yl)-6-(4-methylpiperazin-1-yl)pyrimidin-2-amine] | 0.123
25 | CN1CCN(c2cc(-c3cc4c(cc3F)CCN(C(=O)Nc3ccc(Cl)cc3)C4)nc(N)n2)CC1 [Example 75, 7-[2-Amino-6-(4-methylpiperazin-1-yl)pyrimidin-4-yl]-N-(4-chlorophenyl)-6-fluoro-3,4-dihydroisoquinoline-2(1H)-carboxamide] | 0.044
26 | CN1CCN(c2cc(-c3cc4c(cc3F)CCN(C(=O)NC3CCCCC3)C4)nc(N)n2)CC1 [Example 76, 7-[2-Amino-6-(4-methylpiperazin-1-yl)pyrimidin-4-yl]-N-cyclohexyl-6-fluoro-3,4-dihydroisoquinoline-2(1H)-carboxamide] | 0.077
27 | Cc1cc2c(cc1-c1cc(N3CCN(C)CC3)nc(N)n1)CN(C(=O)Nc1ccc(Cl)cc1)CC2 [Example 77, 7-[2-Amino-6-(4-methylpiperazin-1-yl)pyrimidin-4-yl]-N-(4-chlorophenyl)-6-methyl-3,4-dihydroisoquinoline-2(1H)-carboxamide] | 0.095
28 | Cc1cc2c(cc1-c1cc(N3CCN(C)CC3)nc(N)n1)CN(C(=O)NC1CCCCC1)CC2 [Example 78, 7-[2-Amino-6-(4-methylpiperazin-1-yl)pyrimidin-4-yl]-N-cyclohexyl-6-methyl-3,4-dihydroisoquinoline-2(1H)-carboxamide] | 0.25
29 | CN1CCN(c2cc(-c3ccc4c(c3)CN(C(=O)N(C)C3CCCCC3)CC4)nc(N)n2)CC1 [Example 81, 7-[2-Amino-6-(4-methylpiperazin-1-yl)pyrimidin-4-yl]-N-cyclohexyl-N-methyl-3,4-dihydroisoquinoline-2(1H)-carboxamide] | 0.163
